Patent US4156724A, “N-acylamino-alpha-arylacetamido cephalosporins and antibacterial compositions and methods containing them” (Sumitomo Chemical Company, Limited, priority 1974, dated 1979)
Converted amounts (≈) assume the structure as drawn.

Experiments:
Format in all cases: cell-based
[1] = system: Staphylococcus aureus 209 P; test: Minimum Inhibitory Concentration, Staphylococcus aureus 209 P; conditions: Staphylococcus aureus 209 P; read-out: Minimum Inhibitory Concentration
Protocol: (§1) anti-microbial activity tests were carried out on the compounds obtained in the Examples.

[2] = system: Staphylococcus aureus FS 289; test: Minimum Inhibitory Concentration, Staphylococcus aureus FS 289; conditions: FS289; Staphylococcus aureus FS 289, strain resistant to penicillin; read-out: Minimum Inhibitory Concentration
Protocol: as §1
*Staphylococcus aureus FS 289: strain resistant to penicillin

Escherichia coli NIHJ = test: Minimum Inhibitory Concentration, Escherichia coli NIHJ; conditions: Escherichia coli NIHJ; read-out: Minimum Inhibitory Concentration
Protocol: as §1

[3] = system: Klebsiella pneumoniae 602; test: Minimum Inhibitory Concentration, Klebsiella pneumoniae 602; conditions: Klebsiella pneumoniae, 602, Klebsiella pneumoniae 602; read-out: Minimum Inhibitory Concentration
Protocol: as §1

Proteus vulgaris HX 19 = test: Minimum Inhibitory Concentration, Proteus vulgaris HX 19; conditions: HX19; Proteus vulgaris HX 19; read-out: Minimum Inhibitory Concentration
Protocol: as §1

[4] = system: Pseudomonas aeruginosa 104; test: Minimum Inhibitory Concentration, Pseudomonas aeruginosa 104; conditions: Pseudomonas aeruginosa 104; read-out: Minimum Inhibitory Concentration
Protocol: as §1

Serratia No. 72 = test: Minimum Inhibitory Concentration, Serratia No. 72
Protocol: as §1

[5] = system: Enterobacter aerogeneus No. 75; test: Minimum Inhibitory Concentration, Enterobacter aerogeneus No. 75; conditions: Enterobacter aerogeneus No. 75; read-out: Minimum Inhibitory Concentration
Protocol: as §1

`Cc1ccc2c(O)c(C(=O)NC(C(=O)NC3C(=O)N4C(C(=O)O)=C(CSc5nnn(C)n5)CSC34)c3cccc(N)c3)cnc2n1` (centres unmarked) [Example 63] was tested, and the MIC [1] was 1.56 µg/mL (≈ 2.35 µM), the MIC [2] was 6.25 µg/mL (≈ 9.43 µM) and the MIC (Escherichia coli NIHJ) was 6.25 µg/mL (≈ 9.43 µM). The MIC [3] was 1.56 µg/mL (≈ 2.35 µM), the MIC (Proteus vulgaris HX 19) was 0.1 µg/mL (≈ 0.151 µM) and the MIC [4] was 6.25 µg/mL (≈ 9.43 µM). For the same molecule, the MIC (Serratia No. 72) was 50 µg/mL (≈ 75.4 µM) and the MIC [5] was 12.5 µg/mL (≈ 18.9 µM).

Work on `Nc1cccc([C@@H](NC(=O)c2cnc3cccnc3c2O)C(=O)NC2C(=O)N3C(C(=O)O)=C(CSc4nncs4)CSC23)c1` (stereo partly drawn) [Example 64, 7-[D-α-(4-Hydroxy-1,5-naphthyridine-3-carbonamido)-α-m-aminophenylacetamido]-3-(1,3,4-thiadiazol-5-yl)thiomethyl-3-cephem-4-carboxylic acid] yielded an MIC [1] of 1.56 µg/mL (≈ 2.4 µM), an MIC [2] of 6.25 µg/mL (≈ 9.6 µM) and an MIC (Escherichia coli NIHJ) of 1.56 µg/mL (≈ 2.4 µM). For the same molecule, the MIC [3] was 3.13 µg/mL (≈ 4.81 µM), the MIC (Proteus vulgaris HX 19) was 0.1 µg/mL (≈ 0.154 µM) and the MIC [4] was 6.25 µg/mL (≈ 9.6 µM). For the same molecule, the MIC (Serratia No. 72) was 12.5 µg/mL (≈ 19.2 µM) and the MIC [5] was 3.13 µg/mL (≈ 4.81 µM).

For `Nc1cccc(C(NC(=O)c2cnc3cccnc3c2O)C(=O)NC2C(=O)N3C(C(=O)O)=C(CSc4ccc(O)nn4)CSC23)c1` (centres unmarked) [Example 65], the MIC [1] was 0.78 µg/mL (≈ 1.18 µM), the MIC [2] was 6.25 µg/mL (≈ 9.46 µM) and the MIC (Escherichia coli NIHJ) was 3.13 µg/mL (≈ 4.74 µM). It also gave an MIC [3] of 3.13 µg/mL (≈ 4.74 µM), an MIC (Proteus vulgaris HX 19) of 0.2 µg/mL (≈ 0.303 µM) and an MIC [4] of 3.13 µg/mL (≈ 4.74 µM). For the same molecule, the MIC (Serratia No. 72) was 12.5 µg/mL (≈ 18.9 µM) and the MIC [5] was 3.13 µg/mL (≈ 4.74 µM).

`Nc1cccc(C(NC(=O)c2cnc3cccnc3c2O)C(=O)NC2C(=O)N3C(C(=O)O)=C(CSc4nnc(CO)s4)CSC23)c1` (centres unmarked) [Example 66] gave an MIC [1] of 0.78 µg/mL (≈ 1.15 µM), an MIC [2] of 6.25 µg/mL (≈ 9.18 µM) and an MIC (Escherichia coli NIHJ) of 3.13 µg/mL (≈ 4.6 µM). The MIC [3] was 3.13 µg/mL (≈ 4.6 µM), the MIC (Proteus vulgaris HX 19) was 0.1 µg/mL (≈ 0.147 µM) and the MIC [4] was 3.13 µg/mL (≈ 4.6 µM). The MIC (Serratia No. 72) was 12.5 µg/mL (≈ 18.4 µM) and the MIC [5] was 3.13 µg/mL (≈ 4.6 µM).

In the case of `COc1ccc2ncc(C(=O)NC(C(=O)NC3C(=O)N4C(C(=O)O)=C(CSc5nnnn5C)CSC34)c3cccc(N)c3)c(O)c2n1` (centres unmarked) [Example 67], the MIC [1] is reported as 0.78 µg/mL (≈ 1.15 µM), the MIC [2] is reported as 3.13 µg/mL (≈ 4.61 µM) and the MIC (Escherichia coli NIHJ) is reported as 1.56 µg/mL (≈ 2.3 µM). The MIC [3] was 3.13 µg/mL (≈ 4.61 µM), the MIC (Proteus vulgaris HX 19) was 0.1 µg/mL (≈ 0.147 µM) and the MIC [4] was 3.13 µg/mL (≈ 4.61 µM). The MIC (Serratia No. 72) was 12.5 µg/mL (≈ 18.4 µM) and the MIC [5] was 3.13 µg/mL (≈ 4.61 µM).

With `Cn1nnnc1SCC1=C(C(=O)O)N2C(=O)C(NC(=O)C(NC(=O)c3cnc4cccnc4c3O)c3cccc(N)c3)C2SC1` (centres unmarked) [Example 68] the MIC [1] was 0.78 µg/mL (≈ 1.2 µM), the MIC [2] was 3.13 µg/mL (≈ 4.83 µM) and the MIC (Escherichia coli NIHJ) was 1.56 µg/mL (≈ 2.4 µM). The MIC [3] was 3.13 µg/mL (≈ 4.83 µM), the MIC (Proteus vulgaris HX 19) was 0.1 µg/mL (≈ 0.154 µM) and the MIC [4] was 3.13 µg/mL (≈ 4.83 µM). The MIC (Serratia No. 72) was 12.5 µg/mL (≈ 19.3 µM) and the MIC [5] was 3.13 µg/mL (≈ 4.83 µM).

Work on `Nc1cccc(C(NC(=O)c2cnccc2O)C(=O)NC2C(=O)N3C(C(=O)O)=C(CSc4nnc(CO)s4)CSC23)c1` (centres unmarked) [Example 69] yielded an MIC [1] of 0.39 µg/mL (≈ 0.619 µM), an MIC [2] of 6.25 µg/mL (≈ 9.93 µM) and an MIC (Escherichia coli NIHJ) of 6.25 µg/mL (≈ 9.93 µM). It also gave an MIC [3] of 6.25 µg/mL (≈ 9.93 µM), an MIC (Proteus vulgaris HX 19) of 0.2 µg/mL (≈ 0.318 µM) and an MIC [4] of 6.25 µg/mL (≈ 9.93 µM). For the same molecule, the MIC (Serratia No. 72) was 50 µg/mL (≈ 79.4 µM) and the MIC [5] was 12.5 µg/mL (≈ 19.9 µM).

For `CSc1cnc2c(O)c(C(=O)NC(C(=O)NC3C(=O)N4C(C(=O)O)=C(CSc5nnnn5C)CSC34)c3cccc(N)c3)cnc2n1` (centres unmarked) [Example 70], the MIC [1] was 1.56 µg/mL (≈ 2.24 µM), the MIC [2] was 6.25 µg/mL (≈ 8.98 µM) and the MIC (Escherichia coli NIHJ) was 3.13 µg/mL (≈ 4.5 µM). The MIC [3] was 3.13 µg/mL (≈ 4.5 µM), the MIC (Proteus vulgaris HX 19) was 0.1 µg/mL (≈ 0.144 µM) and the MIC [4] was 6.25 µg/mL (≈ 8.98 µM). It also gave an MIC (Serratia No. 72) of 12.5 µg/mL (≈ 18 µM) and an MIC [5] of 6.25 µg/mL (≈ 8.98 µM).

For `Cn1nnnc1SCC1=C(C(=O)O)N2C(=O)C(NC(=O)C(NC(=O)c3cnc4cccnc4c3O)c3ccc(N)cc3)C2SC1` (centres unmarked) [Example 71], the MIC [1] was 1.56 µg/mL (≈ 2.4 µM), the MIC [2] was 6.25 µg/mL (≈ 9.63 µM) and the MIC (Escherichia coli NIHJ) was 1.56 µg/mL (≈ 2.4 µM). For the same molecule, the MIC [3] was 3.13 µg/mL (≈ 4.83 µM), the MIC (Proteus vulgaris HX 19) was 0.1 µg/mL (≈ 0.154 µM) and the MIC [4] was 3.13 µg/mL (≈ 4.83 µM). For the same molecule, the MIC (Serratia No. 72) was 12.5 µg/mL (≈ 19.3 µM) and the MIC [5] was 3.13 µg/mL (≈ 4.83 µM).

With `Cn1nnnc1SCC1=C(C(=O)O)N2C(=O)C(NC(=O)C(NC(=O)c3cnc4cncnc4c3O)c3cccc(N)c3)C2SC1` (centres unmarked) [Example 72] the MIC [1] was 0.78 µg/mL (≈ 1.2 µM), the MIC [2] was 6.25 µg/mL (≈ 9.62 µM) and the MIC (Escherichia coli NIHJ) was 3.13 µg/mL (≈ 4.82 µM). It also gave an MIC [3] of 6.25 µg/mL (≈ 9.62 µM), an MIC (Proteus vulgaris HX 19) of 0.2 µg/mL (≈ 0.308 µM) and an MIC [4] of 6.25 µg/mL (≈ 9.62 µM). The MIC (Serratia No. 72) was 50 µg/mL (≈ 77 µM) and the MIC [5] was 12.5 µg/mL (≈ 19.2 µM).

`CSc1ncc2c(O)c(C(=O)NC(C(=O)NC3C(=O)N4C(C(=O)O)=C(CSc5cnn[nH]5)CSC34)c3cccc(N)c3)cnc2n1` (centres unmarked) [Example 73] gave an MIC [1] of 0.78 µg/mL (≈ 1.15 µM), an MIC [2] of 6.25 µg/mL (≈ 9.18 µM) and an MIC (Escherichia coli NIHJ) of 6.25 µg/mL (≈ 9.18 µM). For the same molecule, the MIC [3] was 3.13 µg/mL (≈ 4.6 µM), the MIC (Proteus vulgaris HX 19) was 0.2 µg/mL (≈ 0.294 µM) and the MIC [4] was 6.25 µg/mL (≈ 9.18 µM). For the same molecule, the MIC (Serratia No. 72) was 25 µg/mL (≈ 36.7 µM) and the MIC [5] was 6.25 µg/mL (≈ 9.18 µM).

For `CN(C)c1ccc2ncc(C(=O)NC(C(=O)NC3C(=O)N4C(C(=O)O)=C(CSc5nnnn5C)CSC34)c3cccc(N)c3)c(O)c2n1` (centres unmarked) [Example 74], the MIC [1] was 0.78 µg/mL (≈ 1.13 µM), the MIC [2] was 6.25 µg/mL (≈ 9.03 µM) and the MIC (Escherichia coli NIHJ) was 1.56 µg/mL (≈ 2.26 µM). For the same molecule, the MIC [3] was 3.13 µg/mL (≈ 4.52 µM), the MIC (Proteus vulgaris HX 19) was 0.1 µg/mL (≈ 0.145 µM) and the MIC [4] was 3.13 µg/mL (≈ 4.52 µM). For the same molecule, the MIC (Serratia No. 72) was 12.5 µg/mL (≈ 18.1 µM) and the MIC [5] was 6.25 µg/mL (≈ 9.03 µM).

Molecule `Cc1nnc(SCC2=C(C(=O)O)N3C(=O)C(NC(=O)C(NC(=O)c4cnc5sccc5c4O)c4cccc(N)c4)C3SC2)s1` (centres unmarked) [Example 75] has an MIC [1] of 1.56 µg/mL (≈ 2.33 µM), an MIC [2] of 12.5 µg/mL (≈ 18.7 µM) and an MIC (Escherichia coli NIHJ) of 6.25 µg/mL (≈ 9.33 µM). The MIC [3] was 3.13 µg/mL (≈ 4.67 µM), the MIC (Proteus vulgaris HX 19) was 0.39 µg/mL (≈ 0.582 µM) and the MIC [4] was 6.25 µg/mL (≈ 9.33 µM). For the same molecule, the MIC (Serratia No. 72) was 25 µg/mL (≈ 37.3 µM) and the MIC [5] was 12.5 µg/mL (≈ 18.7 µM).
